Laboratory results from ChEMBL document CHEMBL3085750, “Discovery of 2-methylpyridine-based biaryl amides as γ-secretase modulators for the treatment of Alzheimer's disease” (Bioorg Med Chem Lett, 2013).

Key:
Gamma-secretase = experiment: Modulation of gamma-secretase in HEK293 cells expressing guinea pig Swedish mutant SFV-APP695sw assessed as inhibition of amyloid beta-42 production after 16 to 18 hrs by HTRF assay; format: cell-based, Homo sapiens
Cytochrome P450 2D6 = Cytochrome P450 2D6 (Homo sapiens, UniProt P10635); experiment: Inhibition of CYP2D6 (unknown origin) after 10 mins; format: ADME
Chain of Cytochrome P450 2D6 (P10635 whole entry): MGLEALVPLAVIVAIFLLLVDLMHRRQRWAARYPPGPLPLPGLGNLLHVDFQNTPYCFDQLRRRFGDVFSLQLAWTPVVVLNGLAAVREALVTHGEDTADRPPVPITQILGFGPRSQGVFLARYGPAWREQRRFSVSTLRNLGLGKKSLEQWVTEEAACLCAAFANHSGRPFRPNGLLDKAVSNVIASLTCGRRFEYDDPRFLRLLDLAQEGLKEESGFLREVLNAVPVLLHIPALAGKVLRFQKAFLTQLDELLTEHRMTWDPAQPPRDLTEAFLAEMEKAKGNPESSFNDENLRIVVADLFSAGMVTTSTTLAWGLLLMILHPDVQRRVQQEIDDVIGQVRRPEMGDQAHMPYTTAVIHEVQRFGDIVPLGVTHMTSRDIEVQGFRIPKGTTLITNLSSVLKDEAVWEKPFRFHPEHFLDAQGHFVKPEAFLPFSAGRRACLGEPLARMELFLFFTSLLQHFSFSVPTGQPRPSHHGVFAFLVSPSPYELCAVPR

[1] = Metabolic stability in rat liver microsomes at 1 uM after 30 mins; format: ADME; conditions: read-out: Stability
[2] = Ratio of drug level in brain to plasma in mouse at 10 mg/kg, po after 2 hrs; format: ADME, organism-based; design: dose 10 mg/kg, route oral; conditions: read-out: BPR
[3] = Metabolic stability in human liver microsomes at 1 uM after 30 mins; format: ADME; conditions: read-out: Stability
Cytochrome P450 3A4 = Cytochrome P450 3A4 (Homo sapiens, UniProt P08684); experiment: Inhibition of CYP3A4 (unknown origin) after 5 mins; format: ADME
Chain of Cytochrome P450 3A4 (P08684 whole entry): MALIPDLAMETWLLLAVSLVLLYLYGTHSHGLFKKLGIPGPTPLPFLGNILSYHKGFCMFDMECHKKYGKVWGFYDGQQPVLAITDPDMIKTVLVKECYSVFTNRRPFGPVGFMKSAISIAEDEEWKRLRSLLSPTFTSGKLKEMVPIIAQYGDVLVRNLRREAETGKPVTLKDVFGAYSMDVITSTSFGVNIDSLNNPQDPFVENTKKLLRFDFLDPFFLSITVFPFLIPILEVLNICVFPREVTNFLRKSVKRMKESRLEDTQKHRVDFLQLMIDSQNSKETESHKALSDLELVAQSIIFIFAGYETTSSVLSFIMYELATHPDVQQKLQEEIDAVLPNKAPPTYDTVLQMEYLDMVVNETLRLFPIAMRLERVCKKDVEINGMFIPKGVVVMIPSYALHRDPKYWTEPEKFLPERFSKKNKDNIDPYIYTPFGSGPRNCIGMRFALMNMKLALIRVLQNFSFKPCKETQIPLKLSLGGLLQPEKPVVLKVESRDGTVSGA

[4] = target: Gamma-secretase (Homo sapiens) (UniProt Q96BI3+Q9NZ42+Q8WW43+P49768+Q92542+P49810); experiment: Modulation of gamma-secretase in HEK293 cells expressing guinea pig Swedish mutant SFV-APP695sw assessed as inhibition of amyloid beta-42 production at 10 uM after 16 to 18 hrs by HTRF assay relative to control; format: cell-based

| IC50 (Gamma-secretase) [µM] | IC50 (Cytochrome P450 2D6) [µM] | microsomal CLint at 1 µM [1] [µL/min/mg] | Kp at 2 h [2] | microsomal CLint at 1 µM [3] [µL/min/mg] | IC50 (Cytochrome P450 3A4) [µM] | inhibition [4] [%] | SMILES |
| --- | --- | --- | --- | --- | --- | --- | --- |
| 0.72 | 9.8 | > 399 | 0.1 | 497 | 4.7 | – | Cc1cc(-c2ccc(NS(=O)(=O)c3cc(Cl)cc(Cl)c3)cc2)ccn1 |
| 1.83 | 1.9 | > 399 | – | 306 | 2.2 | – | COc1cc(-c2ccnc(C)c2)ccc1NS(=O)(=O)c1cc(C(F)(F)F)cc(C(F)(F)F)c1 |
| > 10 | > 27 | 14 | – | 106 | > 27 | 58 | Cc1cc(-c2ccc(NC(=O)c3cc(C(F)(F)F)cc(C(F)(F)F)c3)cc2)ccn1 |
| 4.06 | 1.8 | 122 | – | 270 | > 27 | – | CCCc1cc(-c2ccc(NS(=O)(=O)c3cc(C(F)(F)F)cc(C(F)(F)F)c3)cc2)ccn1 |
